Biological target: T1, TPO receptor (Homo sapiens, UniProt P40238)
T1 construct: expressed in transfected cells; host or cells: murine BaF3 cells (TPO-responsive line)
T1 sequence (P40238 26-635): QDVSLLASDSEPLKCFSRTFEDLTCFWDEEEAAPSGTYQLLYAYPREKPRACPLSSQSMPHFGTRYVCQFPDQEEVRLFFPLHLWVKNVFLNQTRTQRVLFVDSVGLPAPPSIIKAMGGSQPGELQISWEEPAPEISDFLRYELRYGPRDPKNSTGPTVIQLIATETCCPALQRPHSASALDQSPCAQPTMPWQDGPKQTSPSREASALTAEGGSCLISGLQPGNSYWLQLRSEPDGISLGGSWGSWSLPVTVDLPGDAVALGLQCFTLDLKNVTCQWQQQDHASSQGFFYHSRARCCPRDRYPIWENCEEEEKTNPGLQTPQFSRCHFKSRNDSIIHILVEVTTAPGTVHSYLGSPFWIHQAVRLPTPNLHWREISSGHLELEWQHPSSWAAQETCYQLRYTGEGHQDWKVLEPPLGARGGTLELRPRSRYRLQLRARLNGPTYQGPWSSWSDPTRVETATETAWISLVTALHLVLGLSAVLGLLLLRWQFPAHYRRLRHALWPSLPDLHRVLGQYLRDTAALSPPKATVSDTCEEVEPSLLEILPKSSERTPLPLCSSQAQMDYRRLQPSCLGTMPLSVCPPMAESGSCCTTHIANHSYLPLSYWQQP
Assay: Luciferase assay in TPO-responsive BaF3 cell line
Format: cell-based, murine
Procedure: Compounds of the present invention were tested for potency as mimetics of the TPO receptor in a Luciferase assay such as described in Lamb, et al., Nucleic Acids Research 23: 3283-3289 (1995) and Seidel, et al., Proc. Natl. Acad. Sci., USA 92: 3041-3045 (1995) by substituting a TPO-responsive BaF3 cell line (Vigon et al. Proc. Natl. Acad. Sci. USA 1992, 89, 5640-5644) for the HepG2 cells utilized therein. The murine BaF3 cells express TPO receptors and closely match the pattern of STAT (signal transducers and activators of transcription) activation observed in primary murine and human bone marrow cells.

**Q.** Which EC50 (TPO-responsive BaF3 cells) does the source give for `CC1=NN(c2ccc(C(=O)O)cc2)C(=O)C1N=NC1C(=O)N(c2ccc(C)c(C)c2)N=C1C` (centres unmarked) [Example 1, 4-[1-(3,4-Dimethylphenyl)-3-methyl-4-(3-methyl-5-oxo-2-pyrazolin-4-ylazo)-5-oxo-2-pyrazolin-1-yl]benzoic Acid] here?
**A.** 720 nM

**Q.** And the “activity, % TPO” value (relative to TPO)?
**A.** 56 % TPO
